Data: patent US7307077B2, “Heterocyclic compound and antitumor agent containing the same as effective ingredient” (Zenyaku Kogyo Kabushiki Kaisha, priority 2001, dated 2007)

Tested on: not given
Test: not given
Conditions: not given

| melting point | SMILES |
| --- | --- |
| 242 to 244 °C | C[C@@H]1CN(c2nc(N3CCOCC3)nc(-n3c(NC=O)nc4ccccc43)n2)C[C@H](C)O1 [compound 28, 2-(cis-2,6-dimethylmorpholino)-4-(2-formylaminobenzimidazol-1-yl)-6-morpholino-1,3,5-triazine] |
| 207 to 210 °C | C[C@@H]1OCCN(c2nc(N3CCOCC3)nc(-n3c(C(F)F)nc4ccccc43)n2)[C@@H]1C (relative stereo) [compound 13, 2-(2-difluoromethylbenzimidazol-1-yl)-4-(cis-2,3-dimethylmorpholino)-6-morpholino-1,3,5-triazine] |

The next lines start with the compound.

| SMILES | melting point |
| --- | --- |
| Oc1ccc2c(c1)nc(C(F)F)n2-c1nc(N2CCOCC2)cc(N2CCOCC2)n1 [compound 40, 2-(2-difluoromethyl-5-hydroxybenzimidazol-1-yl)-4,6-dimorpholinopyrimidine] | 223 to 226 °C (dec.) |
| C[C@@H]1OCCN(c2cc(N3CCOCC3)nc(-n3c(N)nc4ccccc43)n2)[C@@H]1C (relative stereo) [Example 2, 2-(2-aminobenzimidazol-1-yl)-4-(cis-2,3-dimethylmorpholino)-6-morpholinopyrimidine] | 129 to 133 °C |

Tested on: MCF-7 cells
Test: Test 1: growth inhibition of MCF-7 human breast cancer cells
Type: cell-based
Conditions: 72 hours culture with sample, read-out: GI50 (50% growth inhibition concentration)
Protocol: Used in the test were MCF-7 cells which were established from human breast cancer and were cultured routinely under the conditions of 37° C. and 5% CO2, in MEM medium supplemented with 10% fetal calf serum, 25 mM of HEPES and 0.1 mg/ml of kanamycin. The MCF-7 cells in a logarithmic growth phase were treated with trypsin/EDTA to prepare single cell suspension adjusted to 4.0×10^4 cells/ml in MEM medium (supplemented with 10% fetal calf serum, 25 mM of HEPES and 0.1 mg/ml of kanamycin). Test compounds were dissolved in DMSO and diluted with RPMI 1640 medium (supplemented with 10% fetal calf serum, 25 mM of HEPES and 0.1 mg/ml of kanamycin) to a concentration of 2.0×10^−4-2.0×10^−9 M.
The cell suspension was filled in a 96-wells microplate at a rate of 0.1 ml per well and was cultured for 24 hours so as to make the cells adhered to the microplate. Then, it was added with 0.1 ml of the sample solution and cultured at 37° C. for 72 hours in 5% CO2.
50% Growth inhibition concentrations (GI50 μM) were calculated from growth inhibitions at various sample concentrations.

| GI50 | SMILES |
| --- | --- |
| 0.34 µM | [O-][S+]1CCN(c2nc(N3CCOCC3)nc(-n3c(C(F)F)nc4ccccc43)n2)CC1 [compound 21, 2-(2-difluoromethylbenzimidazol-1-yl)-4-morpholino-6-(tetrahydro-1,4-thiazin-1-oxo-4-yl)-1,3,5-triazine] |

Same assay, conditions: Homo sapiens, MCF7, 72 hours culture with sample, read-out: GI50 (50% growth inhibition concentration)

| GI50 | SMILES |
| --- | --- |
| < 0.04 µM | C[C@@H]1OCCN(c2nc(N3CCOCC3)nc(-n3c(NC=O)nc4ccccc43)n2)[C@H]1C (relative stereo) [compound 26, 2-(trans-2,3-dimethylmorpholino)-4-(2-formylaminobenzimidazol-1-yl)-6-morpholino-1,3,5-triazine] |
| 0.18 µM | C[C@@H]1CO[C@@H](C)CN1c1nc(N2CCOCC2)nc(-n2c(C(F)F)nc3ccccc32)n1 (relative stereo) [compound 18, 2-(2-difluoromethylbenzimidazol-1-yl)-4-(trans-2,5-dimethylmorpholino)-6-morpholino-1,3,5-triazine] |
| 0.19 µM | CCC(=O)Nc1nc2ccccc2n1-c1nc(N2CCOCC2)nc(N2CCO[C@@H](C)[C@@H]2C)n1 (relative stereo) [compound 25, 2-(2-propionylaminobenzimidazol-1-yl)-4-(trans-2,3-dimethylmorpholino)-6-morpholino-1,3,5-triazine] |

The remaining lines, values behind:

| SMILES | GI50 |
| --- | --- |
| Oc1ccc2c(c1)nc(C(F)F)n2-c1nc(N2CCOCC2)cc(N2CCOCC2)n1 [compound 40, 2-(2-difluoromethyl-5-hydroxybenzimidazol-1-yl)-4,6-dimorpholinopyrimidine] | 0.21 µM |
| CN(C)c1nc(N(C)C)nc(N(C)C)n1 [compound D, hexamethylmelamine, reference compound] | > 100 µM |
| CC1CN(c2cc(N3CCOCC3)nc(-n3c(C(F)F)nc4ccccc43)n2)CCO1 (stereo not shown) [compound 6, 2-(2-difluoromethylbenzimidazol-1-yl)-4-(2-methylmorpholino)-6-morpholinopyrimidine] | 0.29 µM |
| c1cn(-c2nc(N3CCOCC3)nc(N3CCOCC3)n2)cn1 [compound C, 2-(imidazol-1-yl)-4,6-dimorpholino-1,3,5-triazine, reference compound] | 20 µM |
| FC(F)c1nc2ccccc2n1-c1nc(N2CCOCC2)nc(N2CCSCC2)n1 [compound 16, 2-(2-difluoromethylbenzimidazol-1-yl)-4-morpholino-6-thiomorpholino-1,3,5-triazine] | 0.35 µM |
| C[C@@H]1OCCN(c2cc(N3CCOCC3)nc(-n3cnc4ccccc43)n2)[C@H]1C (relative stereo) [compound A, 2-(benzimidazol-1-yl)-4-(trans-2,3-dimethylmorpholino)-6-morpholinopyrimidine] | 2.2 µM |
| C[C@@H]1OCCN(c2cc(N3CCOCC3)nc(-n3c(C(F)F)nc4ccccc43)n2)[C@H]1C (relative stereo) [compound 4, 2-(2-difluoromethylbenzimidazol-1-yl)-4-(trans-2,3-dimethylmorpholino)-6-morpholinopyrimidine] | 0.18 µM |
| Cc1nc2ccccc2n1-c1nc(N2CCOCC2)nc(N2CCOCC2)n1 [compound B, 2-(2-methylbenzimidazol-1-yl)-4,6-dimorpholino-1,3,5-triazine, reference compound] | 3.7 µM |
